# Measured values as given in article PMC5943959, “Potent and Selective Carboxylic Acid Inhibitors of Tumor-Associated Carbonic Anhydrases IX and XII” (Molecules : A Journal of Synthetic Chemistry and Natural …, 2017).
# Like-named read-outs stand apart in the source and are kept apart here.
# How the values were obtained:
# hCA II [1] = biological target: T1, hCA II (Homo sapiens, UniProt P00918); design: method as in PMID 26121309; details: values measured previously; cited from earlier work
# T1 construct: made in house
# hCA I [2] = biological target: T2, hCA I (Homo sapiens, UniProt P00915); design: method as in PMID 26121309; details: values measured previously; cited from earlier work
# T2 construct: made in house
# T2 sequence (P00915 whole entry): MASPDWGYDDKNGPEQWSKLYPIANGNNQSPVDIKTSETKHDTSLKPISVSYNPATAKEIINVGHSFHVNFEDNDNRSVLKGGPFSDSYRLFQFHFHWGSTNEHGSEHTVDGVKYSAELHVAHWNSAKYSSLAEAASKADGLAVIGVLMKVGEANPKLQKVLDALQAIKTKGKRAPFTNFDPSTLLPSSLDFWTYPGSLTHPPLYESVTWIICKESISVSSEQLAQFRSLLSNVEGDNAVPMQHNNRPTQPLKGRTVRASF
# hCA IX [3] = biological target: T3, hCA IX (Homo sapiens, UniProt Q16790); design: method as in PMID 26121309; details: values measured previously; cited from earlier work
# T3 construct: made in house
# hCA VA [4] = biological target: T4, hCA VA (Homo sapiens, UniProt P35218); design: method as in PMID 26121309; details: values measured previously; cited from earlier work
# T4 construct: made in house
# T4 sequence (P35218 39-305): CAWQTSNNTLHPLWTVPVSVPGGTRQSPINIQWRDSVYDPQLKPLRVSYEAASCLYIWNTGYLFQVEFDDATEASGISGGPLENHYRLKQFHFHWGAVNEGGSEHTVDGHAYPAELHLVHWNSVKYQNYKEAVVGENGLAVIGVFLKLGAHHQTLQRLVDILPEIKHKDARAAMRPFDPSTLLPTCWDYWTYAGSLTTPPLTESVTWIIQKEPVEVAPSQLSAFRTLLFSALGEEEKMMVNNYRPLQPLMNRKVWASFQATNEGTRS
# [5] = tested on: chronic myeloid leukemia cells; design: method as in PMID 26121309; details: cited from earlier work
# hCA IV [6] = biological target: T5, hCA IV (Homo sapiens, UniProt P22748); design: method as in PMID 26121309; details: values measured previously; cited from earlier work
# T5 construct: made in house
# T5 sequence (P22748 19-312): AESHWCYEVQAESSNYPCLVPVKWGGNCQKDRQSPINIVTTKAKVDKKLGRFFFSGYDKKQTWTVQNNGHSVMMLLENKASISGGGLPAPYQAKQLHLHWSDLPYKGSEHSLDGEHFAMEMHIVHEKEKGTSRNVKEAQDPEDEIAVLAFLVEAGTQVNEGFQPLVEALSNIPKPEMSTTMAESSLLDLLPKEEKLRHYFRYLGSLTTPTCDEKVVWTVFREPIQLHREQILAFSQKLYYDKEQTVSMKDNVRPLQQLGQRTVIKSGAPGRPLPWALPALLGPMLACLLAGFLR
# hCA IX [7] = biological target: T3, hCA IX; assay: stopped-flow CO2 hydrase assay, hCA IX; type: biochemical; details: for Selectivity Index hCA II/hCA IX: ratio of Ki values; for Ki: recombinant enzyme, errors ± 5–10%, 3 assays
# hCA XII [8] = biological target: T6, hCA XII (Homo sapiens, UniProt O43570); assay: stopped-flow CO2 hydrase assay, hCA XII; type: biochemical; details: for Selectivity Index hCA II/hCA XII: ratio of Ki values
# T6 construct: made in house
# T6 sequence (O43570 25-354): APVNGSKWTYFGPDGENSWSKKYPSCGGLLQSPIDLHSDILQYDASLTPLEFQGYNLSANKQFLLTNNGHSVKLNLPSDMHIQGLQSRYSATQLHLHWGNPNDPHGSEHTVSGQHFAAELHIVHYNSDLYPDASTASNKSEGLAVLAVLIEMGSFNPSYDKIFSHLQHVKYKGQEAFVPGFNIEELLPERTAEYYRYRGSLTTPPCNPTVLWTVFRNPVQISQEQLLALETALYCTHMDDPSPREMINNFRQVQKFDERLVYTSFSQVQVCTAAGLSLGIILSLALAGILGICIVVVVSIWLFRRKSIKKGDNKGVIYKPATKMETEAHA
# hCA VII [9] = biological target: T7, hCA VII (Homo sapiens, UniProt P43166); design: method as in PMID 26121309; details: values measured previously; cited from earlier work
# T7 construct: made in house
# T7 sequence (P43166 whole entry): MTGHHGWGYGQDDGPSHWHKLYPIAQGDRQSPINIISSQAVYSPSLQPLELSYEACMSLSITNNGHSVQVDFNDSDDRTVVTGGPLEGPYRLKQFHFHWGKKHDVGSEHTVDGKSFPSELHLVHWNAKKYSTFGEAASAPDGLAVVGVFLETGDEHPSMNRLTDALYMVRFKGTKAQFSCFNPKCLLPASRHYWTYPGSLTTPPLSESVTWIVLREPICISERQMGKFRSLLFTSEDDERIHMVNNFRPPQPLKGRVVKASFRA
# hCA XII [10] = biological target: T6, hCA XII; design: method as in PMID 26121309; details: values measured previously; cited from earlier work
# hCA I [11] = biological target: T2, hCA I; assay: stopped-flow CO2 hydrase assay, hCA I; type: biochemical
# hCA VII [12] = biological target: T7, hCA VII; assay: stopped-flow CO2 hydrase assay, hCA VII; type: biochemical
# hCA IV [13] = biological target: T5, hCA IV; assay: stopped-flow CO2 hydrase assay, hCA IV; type: biochemical
# hCA VA [14] = biological target: T4, hCA VA; assay: stopped-flow CO2 hydrase assay, hCA VA; type: biochemical
# hCA II [15] = biological target: T1, hCA II; assay: stopped-flow CO2 hydrase assay, hCA II; type: biochemical
# [16] = recombinant enzyme, errors ± 5–10%, 3 assays, read-out: Ki hCA I
# [17] = recombinant enzyme, errors ± 5–10%, 3 assays, read-out: Ki hCA VII
# [18] = recombinant enzyme, errors ± 5–10%, 3 assays, read-out: Ki hCA IV
# [19] = recombinant enzyme, errors ± 5–10%, 3 assays, read-out: Ki hCA VA
# [20] = recombinant enzyme, errors ± 5–10%, 3 assays, read-out: Ki hCA XII
# [21] = recombinant enzyme, errors ± 5–10%, 3 assays, read-out: Ki hCA II
Selectivity Index hCA II/hCA IX (hCA IX [7]),Selectivity Index hCA II/hCA XII (hCA XII [8]),Ki (hCA I [11]; [16]) [µM],Ki (hCA VII [12]; [17]) [µM],Ki (hCA IV [13]; [18]) [µM],Ki (hCA IX [7]) [nM],Ki (hCA VA [14]; [19]) [nM],Ki (hCA XII [8]; [20]) [nM],Ki (hCA II [15]; [21]) [µM],Ki (hCA I [11]) [µM],Ki (hCA VA [14]) [nM],SMILES,further results
>471.7,>79.0,> 50,> 50,> 50,106,117,633,> 50,–,–,O=C(O)c1ccc(NCc2cccnc2)c([N+](=O)[O-])c1 [Compound 13],hCA VII inhibition (in words) (hCA VII [12]): inactive
>2136.8,>113.4,> 50,> 50,3.56,23.4,739,441,> 50,–,–,O=C(O)c1ccc(Sc2nnnn2-c2ccccc2)c([N+](=O)[O-])c1 [Compound 17],–
34.9,–,> 50,0.84,> 50,209,1310,> 50000,7.3,–,–,O=C(O)c1ccc(N2CCc3ccccc32)c([N+](=O)[O-])c1 [Compound 3],–
>3125,>609.01,6.65,0.665,> 50,16,142,82.1,> 50,–,–,O=C(O)c1ccc(Sc2ccccn2)c([N+](=O)[O-])c1 [Compound 10],–
104.8,12.1,2.73,> 50,> 50,72.8,262,629,7.63,–,–,O=C(Cc1ccccc1)Nc1ccc(C(=O)O)cc1 [Compound 18],–
>632.1,–,–,> 50,> 50,79.1,92.5,648,> 50,> 50,–,N#Cc1ccc(NCCc2ccccc2)c([N+](=O)[O-])c1 [Compound 19],hCA VII inhibition (in words) (hCA VII [12]): inactive
15.3,–,–,> 50,> 50,172,–,> 50000,2.63,6.02,> 50000,O=C(O)c1ccc(Sc2ccccc2C(=O)O)c([N+](=O)[O-])c1 [Compound 4],–
>326.8,>57.9,–,> 50,> 50,153,1160,863,> 50,8.15,–,O=C(O)c1ccc(NCCc2ccc(Cl)cc2)c([N+](=O)[O-])c1 [Compound 5],hCA VII inhibition (in words) (hCA VII [12]): inactive

# The next lines start with the compound.
SMILES,Selectivity Index hCA II/hCA IX (hCA IX [7]),Selectivity Index hCA II/hCA XII (hCA XII [8]),Ki (hCA I [11]; [16]) [µM],Ki (hCA VII [12]; [17]) [µM],Ki (hCA IV [13]; [18]) [µM],Ki (hCA IX [7]) [nM],Ki (hCA VA [14]; [19]) [nM],Ki (hCA XII [8]; [20]) [nM],Ki (hCA II [15]; [21]) [µM],Ki (hCA I [11]) [µM],Ki (hCA VA [14]) [nM],further results
O=C(O)c1cc([N+](=O)[O-])c(NCCc2ccccc2)c([N+](=O)[O-])c1 [GV2-20],1.59,7.01,–,–,–,–,–,–,–,–,–,Ki (hCA II [1]): 67.3 nM; Ki (hCA I [2]): 352 nM; Ki (hCA IX [3]): 42.3 nM; Ki (hCA VA [4]): 895 nM; antiproliferative effects [5]: antiproliferative effects; Ki (hCA IV [6]): 7.66 µM; Ki (hCA VII [9]): 8.7 nM; Ki (hCA XII [10]): 9.6 nM
CS(=O)(=O)c1ccc(C(=O)O)cc1[N+](=O)[O-] [Compound 7],264.9,–,–,> 50,> 50,27.6,–,> 50000,7.31,> 50,1460,hCA XII inhibition (in words) (hCA XII [8]): not active
CC(=O)Nc1cccc(Nc2c([N+](=O)[O-])cc(C(=O)O)cc2[N+](=O)[O-])c1 [Compound 12],–,–,–,> 50,> 50,82,144,91.9,> 50,> 50,–,–
CC1=NN(c2ccc(C)cc2)C(=O)/C1=C/Nc1ccc(C(=O)O)cc1[N+](=O)[O-] [Compound 16],>1661.1,>142.0,–,1.73,6.03,30.1,154,352,> 50,> 50,–,–
O=C(O)c1ccc(Sc2nnc(-c3cccc(Br)c3)o2)c([N+](=O)[O-])c1 [Compound 1],11.88,23.99,0.7,0.325,5.09,55.1,826,27.3,0.655,–,–,"drop of inhibitory potency against hCA VII compared to GV2-20 (hCA VII [12]; relative to GV2-20): around 37 fold; Ki against hCA II, fold higher than that of AAZ (hCA II [15]; relative to AAZ): around 54 fold; Ki against hCA II, fold higher than that of GV2-20 (hCA II [15]; relative to GV2-20): around 10 fold"
CCOC(=O)C1CCN(c2ccc(C(=O)O)cc2[N+](=O)[O-])CC1 [Compound 6],263.1,–,–,> 50,> 50,30.6,–,> 50000,8.05,8.21,> 50000,hCA XII inhibition (in words) (hCA XII [8]): not active
CC1OC(Nc2cc(C(=O)O)cc([N+](=O)[O-])c2)C(O)C(O)C1O (stereo not drawn) [Compound 2],68.3,–,–,> 50,> 50,106,–,> 50000,7.24,5.65,1350,–
O=C(O)c1ccc(Sc2nnc(Sc3ccc(C(=O)O)cc3[N+](=O)[O-])s2)c([N+](=O)[O-])c1 [Compound 8],–,–,–,–,–,26.3,–,–,–,6.45,> 50000,Ki (hCA VII [12]): > 50 µM; hCA VII inhibition (in words) (hCA VII [12]): inactive; Ki (hCA IV [13]): 8.8 µM; Ki (hCA XII [8]): 912 nM; Ki (hCA II [15]): 0.801 µM
O=C(CSc1nnc(-c2ccncc2)s1)Nc1cc(C(=O)O)cc([N+](=O)[O-])c1 [Compound 14],>2174.0,>103.7,–,> 50,> 50,23,449,482,> 50,> 50,–,–
CC(C)(C)OC(=O)N1CCC(Nc2ccc(C(=O)O)cc2[N+](=O)[O-])CC1 [Compound 15],>2024.3,>69.1,–,> 50,9.2,24.7,110,724,> 50,> 50,–,–
Cc1cc(C(=O)Nc2cc(C(=O)O)cc([N+](=O)[O-])c2)no1 [Compound 9],51.5,11.3,–,0.762,8.27,165,–,753,8.5,> 50,> 50000,–
Cc1ccc(S(=O)(=O)c2ccc(C(=O)O)cc2[N+](=O)[O-])cc1 [Compound 11],>857.6,>64.3,–,> 50,> 50,58.3,356,778,> 50,> 50,–,–
